# Experimental data: ChEMBL document CHEMBL6134779, “Design of Proteolytic-Resistant Antifungal Peptides by Utilizing Minimum d-Amino Acid Ratios” (J Med Chem, 2024)
# Assays:
# Assay type in all cases: functional
# Candida albicans [1] = test: Antifungal activity against Candida albicans 56452 assessed as inhibition of fungal growth incubated for 48 hrs
# Candida albicans [2] = test: Resistance development in Candida albicans CGMCC 2.2086 assessed as fold increase in MIC after 20 passages by broth microdilution method relative to control
# Candida albicans [3] = test: Antifungal activity against Candida albicans CGMCC 2.2086 assessed as inhibition of fungal growth incubated for 48 hrs
# Candida albicans [4] = test: Antifungal activity against Candida albicans SP3876 assessed as inhibition of fungal growth incubated for 48 hrs
# Candida parapsilosis = test: Antifungal activity against Candida parapsilosis CGMCC 2.3989 assessed as inhibition of fungal growth incubated for 48 hrs; details: Lodderomyces parapsilosis
# Candida albicans [5] = test: Antifungal activity against Fluconazole-resistant Candida albicans 56214 assessed as inhibition of fungal growth incubated for 48 hrs
# Candida albicans [6] = test: Resistance development in Candida albicans CGMCC 2.2086 assessed as fold increase in MIC after 30 passages by broth microdilution method relative to control
# Candida tropicalis = test: Antifungal activity against Candida tropicalis CGMCC 2.1975 assessed as inhibition of fungal growth incubated for 48 hrs
# Candida albicans [7] = test: Antifungal activity against Candida albicans SP3931 assessed as inhibition of fungal growth incubated for 48 hrs
# Candida albicans [8] = test: Antifungal activity against Candida albicans 17546 assessed as inhibition of fungal growth incubated for 48 hrs
# Candida albicans [9] = test: Antifungal activity against Fluconazole-resistant Candida albicans 58288 assessed as inhibition of fungal growth incubated for 48 hrs
# Candida albicans [10] = test: Antifungal activity against Candida albicans 14936 assessed as inhibition of fungal growth incubated for 48 hrs
# Candida albicans [11] = test: Antifungal activity against Candida albicans SP3902 assessed as inhibition of fungal growth incubated for 48 hrs
# Candida albicans [12] = test: Antifungal activity against Candida albicans SP3903 assessed as inhibition of fungal growth incubated for 48 hrs
compound,measurement,setting,value
OC(Cn1cncn1)(Cn1cncn1)c1ccc(F)cc1F [FLUCONAZOLE],MIC95,Candida albicans [1],2 µM
same,fold change (FC),Candida albicans [2],64
same,MIC95,Candida albicans [3],4 µM
same,MIC95,Candida albicans [4],8 µM
same,MIC95,Candida parapsilosis,4 µM
same,MIC95,Candida albicans [5],> 64 µM
same,fold change (FC),Candida albicans [6],128
same,MIC95,Candida tropicalis,1 µM
same,MIC95,Candida albicans [7],2 µM
same,MIC95,Candida albicans [8],1 µM
same,MIC95,Candida albicans [9],> 64 µM
same,MIC95,Candida albicans [10],2 µM
same,MIC95,Candida albicans [11],4 µM
same,MIC95,Candida albicans [12],2 µM
